Patent publication US10662481B2, “Methods for predicting response to HDACi/DNMTi combination in multiple myeloma” (INSERM (INSTITUT NATIONAL DE LA SANTÉ ET DE LA RECHERCHE …, priority 2014, dated 2020)

Legend:
Type in all cases: cell-based, human
Settings in all cases: 0.5 μM decitabine, mean ± SD of viable cells, 3 experiments
[1] = test system: XG-20; experiment: Cell viability of HMCLs by trypan blue exclusion (XG-20)
[2] = test system: XG-5; experiment: Cell viability of HMCLs by trypan blue exclusion (XG-5)
[3] = test system: XG-6; experiment: Cell viability of HMCLs by trypan blue exclusion (XG-6)
[4] = test system: LP1; experiment: Cell viability of HMCLs by trypan blue exclusion (LP1)
[5] = test system: XG-7; experiment: Cell viability of HMCLs by trypan blue exclusion (XG-7)

For `Nc1ncn([C@H]2C[C@H](O)[C@@H](CO)O2)c(=O)n1` [5-aza, 5-aza-2′-deoxycytidine], the “Cell viability (%) Day 3 5-aza” value [1] was 91 ± 3%, the “Cell viability (%) Day 3 5-aza” value [2] was 65 ± 5% and the “Cell viability (%) Day 3 5-aza” value [3] was 90 ± 1%. The “Cell viability (%) Day 3 5-aza” value [4] was 91 ± 2% and the “Cell viability (%) Day 3 5-aza” value [5] was 90 ± 2%.
